Measured values: patent EP2156836A1, “[…] PHARMACEUTICAL COMPOSITIONS CONSISTING OF A COMBINATION OF A 5 alpha-REDUCTASE ENZYME INHIBITOR AND A 1 alpha- […] RECEPTOR ANTAGONIST” (priority 2007, dated 2008)
Where two headings read alike, the source gives them in different places.

Legend:
[1] = test system: Benign Prostatic Hyperplasia; type: in vivo, male patients; conditions: for Clinical Progression of BPH at 12 months of treatment (patients/group) / Clinical Progression of BPH at 12 months of treatment: daily tablet 12 months: Alfuzosine 10 mg, Finasteride 5 mg; for Clinical Progression of BPH at 12 months of treatment (patients/group): combination Finasteride 5 mg + Alfuzosine 5 mg; for Clinical Progression of BPH at 12 months of treatment (patients/group) / Increase in symptoms according to the score from American Association of Urology at 12 months of treatment (patients/group): n=40 per group; for Side Effects / patients who discontinued the treatment: human, in vivo; for Clinical Progression of BPH at 12 months of treatment: combination 5 mg + 5 mg, n=40
Method: In this clinical trial several tests were performed wherein Placebo, Finasteride, Alfuzosine and a combination of Finasteride/Alfuzosine were administered to a population of patients diagnosed with Benign Prostatic Hyperplasia.
(§1) Said clinical trial was applied in 160 male patients with a 60-year old average, wherein the symptoms manifested according to Urology American Association ranking were scored (score is assigned according to the following criteria: from 0= No symptoms to 35= severe symptoms). […] Finally, vital signs, treatment compliance and side effects were assessed for each of the groups.
(§2) At the beginning and at the end of said clinical trial the following examinations were applied to the patients: digital rectal examination, prostate-specific antigen assessment and urine analysis.
Subjects were randomized and assigned to a double-blind study divided into 4 groups. Randomization was stratified and medicament administration at night. • Group 1 Placebo: Patients received a daily tablet along 12 months. • Group 2 Finasteride: Patients received a daily 5 mg tablet along 12 months. • Group 3 Alfuzosine: Patients received a daily 10 mg tablet along 12 months. • Group 4 Combination: Patients received a tablet with a combination of Finasteride 5 mg and Alfuzosine 5 mg daily along 12 months.

prostate size = conditions: cited from earlier work; for reduces prostate size: stated for the 5α-reductase enzyme inhibitors as a class; for reduction of prostate size: Dutasteride daily dosage
BPH = conditions: cited from earlier work
[2] = cited from earlier work; for serum concentrations as share of the equilibrium state concentration: daily dosage
[3] = test system: Benign Prostatic Hyperplasia; conditions: for Incontinence (patients/group) / Invasive Therapy due to BPH (patients/group) / Urinary Retention (patients/group) / Urinary Tract infection (patients/group) / Incontinence / Invasive Therapy due to BPH / Urinary Retention / Urinary Tract infection: 12 months; for Incontinence (patients/group) / Invasive Therapy due to BPH (patients/group) / Urinary Retention (patients/group) / Urinary Tract infection (patients/group) / Incontinence / Invasive Therapy due to BPH / Urinary Retention / Urinary Tract infection / Increase in symptoms according to the score from American Association of Urology at 12 months of treatment / Increase in symptoms according to the score from American Association of Urology at 12 months of treatment (patients/group): same dosing as E17; for Clinical Progression of BPH at 12 months of treatment (patients/group): daily tablet 12 months: Doxazosine titrated 1 to 8 mg, combination Dutasteride 0.5 mg + Doxazosine 1 mg; for Clinical Progression of BPH at 12 months of treatment (patients/group) / Clinical Progression of BPH at 12 months of treatment: Dutasteride 0.5 mg; for Clinical Progression of BPH at 12 months of treatment (patients/group) / Increase in symptoms according to the score from American Association of Urology at 12 months of treatment (patients/group): n=40 per group; for Side Effects / patients who discontinued the treatment: human, in vivo; for Incontinence / Invasive Therapy due to BPH / Urinary Retention / Urinary Tract infection / Clinical Progression of BPH at 12 months of treatment / Increase in symptoms according to the score from American Association of Urology at 12 months of treatment: percent of patients; for Clinical Progression of BPH at 12 months of treatment: Doxazosine titrated 1 to 8 mg, combination 0.5 mg + 1 mg, n=40
Method: as §1, with “64-year” for “60-year”
as §2
Subjects were randomized and assigned to a double-blind study divided into 4 groups.

blood pressure = conditions: after oral administration; cited from earlier work
plasmatic proteins = conditions: plasma; cited from earlier work
[4] = in vivo; cited from earlier work
[5] = percent of patients, 12 months, same dosing as E1
[6] = percent of patients, same dosing as E1

Structure (SMILES) | Incontinence (patients/group) ([1]; 12 months, same dosing as E1) | Invasive Therapy due to BPH (patients/group) ([1]; 12 months, same dosing as E1) | Urinary Tract infection (patients/group) ([1]; 12 months, same dosing as E1) | Clinical Progression of BPH at 12 months of treatment (patients/group) [1] | Side Effects [1] | patients who discontinued the treatment [1] [%] | Incontinence [1, 5] [%] | Invasive Therapy due to BPH [1, 5] [%] | Urinary Tract infection [1, 5] [%] | Clinical Progression of BPH at 12 months of treatment ([1]; percent of patients) [%] | Increase in symptoms according to the score from American Association of Urology at 12 months of treatment [1, 6] [%] | Increase in symptoms according to the score from American Association of Urology at 12 months of treatment (patients/group) ([1]; same dosing as E1) | reduces prostate size (prostate size) | Incontinence (patients/group) [3] | Invasive Therapy due to BPH (patients/group) [3] | Urinary Retention (patients/group) [3] | Urinary Tract infection (patients/group) [3] | Clinical Progression of BPH at 12 months of treatment (patients/group) [3] | Side Effects [3] | patients who discontinued the treatment [3] [%] | other results
CC(C)(C)NC(=O)[C@H]1CC[C@H]2[C@@H]3CC[C@H]4NC(=O)C=C[C@]4(C)[C@H]3CC[C@]12C [Finasteride] | 3/40 | 2/40 | 1/40 | 13/40 | erectile dysfunction, libido decrease and/or abnormal ejaculation | 45 | 7.5 | 5 | 2.5 | 32.5 | 37.5 | 15/40 | up to 50% | – | – | – | – | – | – | – | Incidence of side effects during Finasteride treatment (BPH; most common: erectile dysfunction, decrease in ejaculated semen volume): about 3%; reduction in DHT concentration in blood and in prostate gland (BPH; patients who suffer BPH): ≤ 30%; reduction of prostate-specific antigen (PSA) serum levels (BPH; patients who suffer BPH): up to 50%; efficacy in an analysis of six clinical studies (BPH; when prostate weighed >40 g, Logan YT, Belgeri MT 2005): very effective
COc1cc2nc(N(C)CCCNC(=O)C3CCCO3)nc(N)c2cc1OC (stereo not drawn) [Alfuzosine] | 4/40 | 4/40 | 2/40 | 18/40 | dizziness, postural hypotension, asthenia and impotence | 95 | 10 | 10 | 5 | 45 | 47.5 | 19/40 | – | – | – | – | – | – | – | – | Urinary Retention (patients/group) ([1]; 12 months, same dosing as E1): 21/40; Urinary Retention [1, 5]: 52.5%
C[C@]12C=CC(=O)N[C@@H]1CC[C@@H]1[C@@H]2CC[C@]2(C)[C@@H](C(=O)Nc3cc(C(F)(F)F)ccc3C(F)(F)F)CC[C@@H]12 [Dutasteride] | – | – | – | – | – | – | – | – | – | – | – | – | up to 50% | 5/40 | 2/40 | 15/40 | 1/40 | 11/40 | erectile dysfunction, libido decrease and/or abnormal ejaculation | 60 | half-life in blood ([2]; blood): 3-5 weeks; serum concentrations as share of the equilibrium state concentration ([2]; after one month): 65%; serum concentrations as share of the equilibrium state concentration ([2]; after three months): approximately 90%; reduction of prostate size (prostate size; in some patients): up to 50%; reduction of prostate size (prostate size): at least 20%; Incontinence [3]: 12.5%; Invasive Therapy due to BPH [3]: 5%; Urinary Retention [3]: 37.5%; Urinary Tract infection [3]: 2.5%; Clinical Progression of BPH at 12 months of treatment [3]: 27.5%; Increase in symptoms according to the score from American Association of Urology at 12 months of treatment [3]: 35%; Increase in symptoms according to the score from American Association of Urology at 12 months of treatment (patients/group) [3]: 14/40
COc1cc2nc(N3CCN(C(=O)C4COc5ccccc5O4)CC3)nc(N)c2cc1OC (stereo not drawn) [Doxazosine] | – | – | – | – | – | – | – | – | – | – | – | – | – | 6/40 | 5/40 | 22/40 | 3/40 | 18/40 | dizziness, postural hypotension, and asthenia | 99 | duration of hypotensive effects (remaining active) (blood pressure): at least 24 hours; time at which hypotensive effects are observed (blood pressure): 2 h; bound to plasmatic proteins (plasmatic proteins): 98-99%; share of the dose removed by urine [4]: 9%; Incontinence [3]: 15%; Invasive Therapy due to BPH [3]: 12.5%; Urinary Retention [3]: 55%; Urinary Tract infection [3]: 7.5%; Clinical Progression of BPH at 12 months of treatment [3]: 45%; Increase in symptoms according to the score from American Association of Urology at 12 months of treatment [3]: 50%; Increase in symptoms according to the score from American Association of Urology at 12 months of treatment (patients/group) [3]: 20/40
